The text below walks through data of patent US10947271B2, “Antibacterial agents” (THE UNIVERSITY OF QUEENSLAND, priority 2014, dated 2021).

Holding throughout (assay type): cell-based
Details in all cases: 24 h incubation, visual reading

The test system of test [1] is Enterococcus faecium MDR Van A ATCC 51559. Description: MIC assay, E. faecium MDR Van A ATCC 51559. The method, then: (§1) Antimicrobial activity of compounds was tested against a number of bacterial strains, including Staphylococcus aureus (MRSA ATCC 43300, GISA NRS17, VISA NRS1, MRSA clinical isolate, daptomycin resistant clinical isolate), Streptococcus pneumoniae (MDR ATCC 700677), Enterococcus faecalis (VanA clinical isolate) and Enterococcus faecium (MDR Van A ATCC 51559).
(§2) All compounds were prepared to 160 μg/ml solution in water from a stock solution of 1 mM concentration.
(§3) The compounds, along with standard antibiotics were serially diluted twofold across the wells of 96-well non-binding surface plates (NBS, Corning). Standards ranged from 64 μg/ml to 0.03 μg/ml and compounds from 8 μg/ml to 0.003 μg/ml with final volumes of 50 μL per well. Gram positive bacteria were cultured in Muller Hinton broth (MHB) (Bacto laboratories, Cat. no. 211443) at 37° C. overnight. A sample of each culture was then diluted 40-fold in fresh MHB broth and incubated at 37° C. for 2-3 hrs. The resultant mid-log phase cultures were diluted to the final concentration of 5×10e5 CFU/mL, then 50 μL was added to each well of the compound-containing 96-well plates. All the plates were covered and incubated at 37° C. for 24 h. MICs were the lowest concentration showing no visible growth.
(§4) MICs were determined visually at 24 hr incubation and the MIC was defined as the lowest concentration with which no growth was visible after incubation. Both MIC and MBC were determined by visual inspection only.

Test [2] concerns Streptococcus pneumoniae MDR ATCC 700677. Description: MIC assay, S. pneumoniae MDR ATCC 700677. The method, then: as §1, §2, §3, §4
Test [3] concerns Staphylococcus aureus MRSA ATCC 43300. Description: MIC assay, S. aureus MRSA ATCC 43300. The method, then: as §1, §2, §3, §4

As for `CCCCCCCCCCC(=O)N[C@@H](CCCCN)C(=O)N[C@@H](CCCCN)C(=O)N[C@@H](CCCCNC(=O)[C@H]1NC(=O)[C@H]2NC(=O)[C@H](NC(=O)[C@@H]3NC(=O)[C@H](CC(N)=O)NC(=O)[C@H](NC(=O)[C@@H](CC(C)C)NC)[C@H](O)c4ccc(c(Cl)c4)Oc4cc3cc(c4O[C@@H]3O[C@H](CO)[C@@H](O)[C@H](O)[C@H]3O[C@H]3C[C@](C)(N)[C@H](O)[C@H](C)O3)Oc3ccc(cc3Cl)[C@H]2O)c2ccc(O)c(c2)-c2c(O)cc(O)cc21)C(=O)NC` [MCC_000292], the “Minimum Inhibitory Concentration (MIC) E. faecium ATCC51559” value in test [1] was “xx (xx = 1-4)”. Further, the “Minimum Inhibitory Concentration (MIC) S. pneumoniae ATCC 700677” value in test [2] is “xxxx (xxxx = 0.01-<0.1)”. Moreover, the “Minimum Inhibitory Concentration (MIC) Staph. aureus ATCC43300” value in test [3] is on record as “xxxx (xxxx = 0.01-<0.1)”.

In the case of `CCCCCCCCCN1CCC(C(=O)N[C@@H](CCCCN)C(=O)N[C@@H](CCCCN)C(=O)NCCCNC(=O)[C@H]2NC(=O)[C@H]3NC(=O)[C@H](NC(=O)[C@@H]4NC(=O)[C@H](CC(N)=O)NC(=O)[C@H](NC(=O)[C@@H](CC(C)C)NC)[C@H](O)c5ccc(c(Cl)c5)Oc5cc4cc(c5O[C@@H]4O[C@H](CO)[C@@H](O)[C@H](O)[C@H]4O[C@H]4C[C@](C)(N)[C@H](O)[C@H](C)O4)Oc4ccc(cc4Cl)[C@H]3O)c3ccc(O)c(c3)-c3c(O)cc(O)cc32)CC1` [MCC_000937], the “Minimum Inhibitory Concentration (MIC) E. faecium ATCC51559” value in test [1] is “xx (xx = 1-4)”. For the same molecule, the “Minimum Inhibitory Concentration (MIC) S. pneumoniae ATCC 700677” value in test [2] is “xxxx (xxxx = 0.01-<0.1)”. Moreover, the “Minimum Inhibitory Concentration (MIC) Staph. aureus ATCC43300” value in test [3] is “xxxx (xxxx = 0.01-<0.1)”.

For the molecule `CNC(CC(C)C)C(=O)NC1C(=O)NC(CC(N)=O)C(=O)NC2C(=O)NC3C(=O)NC(C(=O)NC(C(=O)NCCCCC(NC(=O)C(CCCCN)NC(=O)C(CCCCN)NC(=O)C(CCCCN)NC(=O)c4ccc(Oc5ccccc5)cc4)C(=O)O)c4cc(O)cc(O)c4-c4cc3ccc4O)C(O)c3ccc(c(Cl)c3)Oc3cc2cc(c3OC2OC(CO)C(O)C(O)C2OC2CC(C)(N)C(O)C(C)O2)Oc2ccc(cc2Cl)C1O` (centres unmarked) [MCC_000194], the “Minimum Inhibitory Concentration (MIC) E. faecium ATCC51559” value in test [1] was “x (x = >4)”. The “Minimum Inhibitory Concentration (MIC) S. pneumoniae ATCC 700677” value in test [2] is “xxx (xxx = 0.1-<1)”. For the same molecule, the “Minimum Inhibitory Concentration (MIC) Staph. aureus ATCC43300” value in test [3] is “xxx (xxx = 0.1-<1)”.

In the case of `CCCCCCCCCCCCCC(=O)N[C@@H](CCCCN)C(=O)N[C@@H](CCCCN)C(=O)NCCCNC(=O)[C@H]1NC(=O)[C@H]2NC(=O)[C@H](NC(=O)[C@@H]3NC(=O)[C@H](CC(N)=O)NC(=O)[C@H](NC(=O)[C@@H](CC(C)C)NC)[C@H](O)c4ccc(c(Cl)c4)Oc4cc3cc(c4O[C@@H]3O[C@H](CO)[C@@H](O)[C@H](O)[C@H]3O[C@H]3C[C@](C)(N)[C@H](O)[C@H](C)O3)Oc3ccc(cc3Cl)[C@H]2O)c2ccc(O)c(c2)-c2c(O)cc(O)cc21` [MCC_000345], the “Minimum Inhibitory Concentration (MIC) E. faecium ATCC51559” value in test [1] is “xxxx (xxxx = 0.01-<0.1)”. The “Minimum Inhibitory Concentration (MIC) S. pneumoniae ATCC 700677” value in test [2] is listed as “xxxxx (xxxxx = <0.01)”. For the same molecule, in test [3], the “Minimum Inhibitory Concentration (MIC) Staph. aureus ATCC43300” value is given as “xxxxx (xxxxx = <0.01)”.

On to `CNC(=O)C(CCCCNC(=O)C1NC(=O)C2NC(=O)C(NC(=O)C3NC(=O)C(CC(N)=O)NC(=O)C(NC(=O)C(CC(C)C)NC)C(O)c4ccc(c(Cl)c4)Oc4cc3cc(c4OC3OC(CO)C(O)C(O)C3OC3CC(C)(N)C(O)C(C)O3)Oc3ccc(cc3Cl)C2O)c2ccc(O)c(c2)-c2c(O)cc(O)cc21)NC(=O)C(CCCCN)NC(=O)C(CCCCN)NC(=O)Cc1ccc(-c2ccccc2)cc1` (centres unmarked) [MCC_000512], for which the “Minimum Inhibitory Concentration (MIC) E. faecium ATCC51559” value in test [1] was “x (x = >4)”. For the same molecule, the “Minimum Inhibitory Concentration (MIC) S. pneumoniae ATCC 700677” value in test [2] is “xxx (xxx = 0.1-<1)”. Moreover, in test [3], the “Minimum Inhibitory Concentration (MIC) Staph. aureus ATCC43300” value is “xxx (xxx = 0.1-<1)”.

As for `CCCCCCCCCN1CCC(C(=O)N[C@@H](CCCCN)C(=O)N[C@@H](CCCCNC(=O)[C@H]2NC(=O)[C@H]3NC(=O)[C@H](NC(=O)[C@@H]4NC(=O)[C@H](CC(N)=O)NC(=O)[C@H](NC(=O)[C@@H](CC(C)C)NC)[C@H](O)c5ccc(c(Cl)c5)Oc5cc4cc(c5O[C@@H]4O[C@H](CO)[C@@H](O)[C@H](O)[C@H]4O[C@H]4C[C@](C)(N)[C@H](O)[C@H](C)O4)Oc4ccc(cc4Cl)[C@H]3O)c3ccc(O)c(c3)-c3c(O)cc(O)cc32)C(N)=O)CC1` [MCC_004825], the “Minimum Inhibitory Concentration (MIC) E. faecium ATCC51559” value in test [1] is on record as “xxx (xxx = 0.1-<1)”. Further, the “Minimum Inhibitory Concentration (MIC) S. pneumoniae ATCC 700677” value in test [2] is given as “xxx (xxx = 0.1-<1)”. Also, the “Minimum Inhibitory Concentration (MIC) Staph. aureus ATCC43300” value in test [3] was “xxxx (xxxx = 0.01-<0.1)”.

Regarding `CN[C@H](CC(C)C)C(=O)N[C@H]1C(=O)N[C@@H](CC(N)=O)C(=O)N[C@H]2C(=O)N[C@H]3C(=O)N[C@H](C(=O)N[C@H](C(=O)NCCCC[C@H](NC(=O)[C@H](CCCCN(C)C)NC(=O)c4ccc(Cl)cc4)C(=O)O)c4cc(O)cc(O)c4-c4cc3ccc4O)[C@H](O)c3ccc(c(Cl)c3)Oc3cc2cc(c3O[C@@H]2O[C@H](CO)[C@@H](O)[C@H](O)[C@H]2O[C@H]2C[C@](C)(N)[C@H](O)[C@H](C)O2)Oc2ccc(cc2Cl)[C@H]1O` [MCC_007219], the “Minimum Inhibitory Concentration (MIC) E. faecium ATCC51559” value in test [1] was “x (x = >4)”. Moreover, the “Minimum Inhibitory Concentration (MIC) S. pneumoniae ATCC 700677” value in test [2] was “x (x = >4)”. Further, in test [3], the “Minimum Inhibitory Concentration (MIC) Staph. aureus ATCC43300” value is on record as “xx (xx = 1-4)”.

With `CCCCCCCCCC(=O)N[C@@H](CCCCN(CC)CC)C(=O)N[C@@H](CCCCNC(=O)[C@H]1NC(=O)[C@H]2NC(=O)[C@H](NC(=O)[C@@H]3NC(=O)[C@H](CC(N)=O)NC(=O)[C@H](NC(=O)[C@@H](CC(C)C)NC)[C@H](O)c4ccc(c(Cl)c4)Oc4cc3cc(c4O[C@@H]3O[C@H](CO)[C@@H](O)[C@H](O)[C@H]3O[C@H]3C[C@](C)(N)[C@H](O)[C@H](C)O3)Oc3ccc(cc3Cl)[C@H]2O)c2ccc(O)c(c2)-c2c(O)cc(O)cc21)C(=O)O` [MCC_007330], the “Minimum Inhibitory Concentration (MIC) E. faecium ATCC51559” value in test [1] is “x (x = >4)”. The “Minimum Inhibitory Concentration (MIC) S. pneumoniae ATCC 700677” value in test [2] is reported as “xxx (xxx = 0.1-<1)”. Moreover, the “Minimum Inhibitory Concentration (MIC) Staph. aureus ATCC43300” value in test [3] is listed as “xxx (xxx = 0.1-<1)”.

Take `CN[C@H](CC(C)C)C(=O)N[C@H]1C(=O)N[C@@H](CC(N)=O)C(=O)N[C@H]2C(=O)N[C@H]3C(=O)N[C@H](C(=O)N[C@H](C(=O)NCCCC[C@H](NC(=O)[C@H](CCCCN)NC(=O)[C@H](CCCCN)NC(=O)CCCOc4ccccc4)C(=O)O)c4cc(O)cc(O)c4-c4cc3ccc4O)[C@H](O)c3ccc(c(Cl)c3)Oc3cc2cc(c3O[C@@H]2O[C@H](CO)[C@@H](O)[C@H](O)[C@H]2O[C@H]2C[C@](C)(N)[C@H](O)[C@H](C)O2)Oc2ccc(cc2Cl)[C@H]1O` [MCC_005501]: in test [1], the “Minimum Inhibitory Concentration (MIC) E. faecium ATCC51559” value is “x (x = >4)”. Also, in test [2], the “Minimum Inhibitory Concentration (MIC) S. pneumoniae ATCC 700677” value is given as “xx (xx = 1-4)”. Besides, the “Minimum Inhibitory Concentration (MIC) Staph. aureus ATCC43300” value in test [3] was “xx (xx = 1-4)”.

For `CCCCCCCCCCCCCC(=O)NCC(=O)N[C@@H](CO)C(=O)N[C@@H](CCCCN)C(=O)N[C@@H](CCCCN)C(=O)N[C@@H](CCCCN)C(=O)N[C@@H](CCCCNC(=O)[C@H]1NC(=O)[C@H]2NC(=O)[C@H](NC(=O)[C@@H]3NC(=O)[C@H](CC(N)=O)NC(=O)[C@H](NC(=O)[C@@H](CC(C)C)NC)[C@H](O)c4ccc(c(Cl)c4)Oc4cc3cc(c4O[C@@H]3O[C@H](CO)[C@@H](O)[C@H](O)[C@H]3O[C@H]3C[C@](C)(N)[C@H](O)[C@H](C)O3)Oc3ccc(cc3Cl)[C@H]2O)c2ccc(O)c(c2)-c2c(O)cc(O)cc21)C(=O)O` [MCC_000380], the “Minimum Inhibitory Concentration (MIC) S. pneumoniae ATCC 700677” value in test [2] was “xxxxx (xxxxx = <0.01)”. Besides, the “Minimum Inhibitory Concentration (MIC) Staph. aureus ATCC43300” value in test [3] is recorded as “xxxx (xxxx = 0.01-<0.1)”.
